This assay deals with drug-resistant Mycobacterium tuberculosis. The note with it: peptide 10 micrograms per ml, seven days.

Residues, ends and D or L forms follow the SMILES beside them.

The term % inhibition denotes the share of the control response that was lost under treatment. For `C[C@@H](O)[C@H](N)C(=O)N[C@@H](CCCCN)C(=O)N1CCC[C@H]1C(=O)N[C@@H](CCCNC(=N)N)C(=O)O` [Tuftsin, Thr-Lys-Pro-Arg-OH] (H-TKPR-OH), the “% inhibition” value turned out to be 0.0%.

(Values after US20100210567A1, “USE OF A TUFTSIN AS A THERAPEUTIC AGENT” (priority 2007, published 2010).)
